Measured values reported in patent US20230079439A1, “Compositions and Methods for Enhancing Beta Cell Maturation, Health and Function” (THE REGENTS OF THE UNIVERSITY OF CALIFORNIA, priority 2016, published 2023).
Ends that are not written are not given here.

Assays:
Type in all cases: cell-based, rat
INS-1E cells [1] = test: Insulin content (RIA) of INS-1E lysates; settings: 24 h
Procedure: (§1) FIG. 7, comprising FIG. 7A through FIG. 7G, depicts the evaluation of the biological activity of HSA-28P in INS-1E cells. FIG. 7A depicts dose-response analysis of the effect of HSA-28P on the rate of insulin secretion in INS-1E cells. The INS-1E cells were grown and trypsinized as described in Methods. Subsequently, cells were mixed with the indicated concentrations of HSA-28P (red columns), non-relevant peptide nanoparticles (NRPNP, green columns), and naked nanoparticles (NP, blue columns) and were seeded in 12-well plates. After 24 h the cells were taken to a GSIS in the presence of 2.5 mM (weak color bars) or 16.7 mM (strong color bars) glucose. […] INS-1E cells were treated as described in Panel D. Cells were detached by trypsin and counted as described in Methods and then were visualized with a Cells Sense Live Imaging microscope. […]
The lysis buffer contained 50 mmol/L Tris-HCl, pH 7.5, 1 mmol/L EDTA, 1 mmol/L EGTA, 1 mmol/L Na3VO4, 150 mmol/L NaCl, 50 mmol/L NaF, 10 mmol/L sodium-glycerophosphate, 5 mmol/L sodium pyrophosphate, and 1 mmol/L PMSF, supplemented with 0.1% (v/v) IGEPAL, 0.1% (v/v) 2-β-mercaptoethanol, and protease inhibitor cocktail (1:100 dilution). […] Protein content in the supernatant was determined by Bradford analysis, using a BSA standard dissolved in the same buffer. […]

INS-1E cells [2] = test: MTT cell viability under glucose oxidase-induced oxidative stress
Procedure: as §1, with “glucose. FIG. 7B depicts time-course analysis of the effect of HSA-28P on the rate of insulin secretion in INS-1E cells. The INS-1E cells were prepared for the experiment as described above with 1.34 μM of both HSA-28P or NRPNP, and 0.76 μg/ml of NP.” for “glucose.”
Briefly, cells were incubated with MTT (2 mg/mL) in growth medium for 30 min at 37° C. […] Absorbance at 570 nm was measured in a SpectraMax M5 spectrophotometer (Sunnyvale, Calif., USA). The obtained results were normalized by total protein content in culture cells, which was measured using the Bradford reagent. […]

INS-1E cells [3] = test: Cell counting (trypan blue) / proliferation and cluster formation; settings: 24 h
Procedure: as §1, with “glucose. FIG. 7B depicts time-course analysis of the effect of HSA-28P on the rate of insulin secretion in INS-1E cells. The INS-1E cells were prepared for the experiment as described above with 1.34 μM of both HSA-28P or NRPNP, and 0.76 μg/ml of NP. After incubation for the time indicated in the graph, the cells were taken to a GSIS as described in Methods. FIG. 7C depicts the measurement of insulin content. The RIA-assay was performed for INS-1E lysates.” for “glucose.”
Cells were detached by trypsin and colored by Trypan blue. Only uncolored cells were counted. […]

For “HSA-112: HSA-28 dimer formed by bridging two HSA-28 monomers via amide bond formation with active ester PEG2,000 (QQGEFLNYD-NH2; not fully specified (N-terminus); also: dimer of two HSA-28 monomers bridged via amide bonds with active ester PEG2000)”, the “effect on cellular / total insulin content” value (INS-1E cells [1]) was “did not affect the cellular insulin content”, the “cell protective effect compared with trolox” value (INS-1E cells [2]; glucose oxidase-induced oxidative stress) was “almost identical to that of the well-known antioxidant (trolox)” and the “effect on cell viability under oxidative stress” value (INS-1E cells [2]; glucose oxidase/glucose system, 24 h) was “cytoprotective effect”. For the same substance, the “amount of cells / proliferation rate” value (INS-1E cells [3]) was “higher than that in the control dishes”.
